Results: US7605149B1, “Modulation of the phospholipase A2 pathway as a therapeutic” (University of South Florida, priority 1998, dated 2009)

Tests used:
[1] = test system: p38 MAPK in differentiated PC12 cells; assay: Immunolocalization of activated p38 MAPK in neuronal cells; assay type: cell-based, rat; conditions: 10 and 20 min, FIG. 26
Experimental: Immunolocalization of activated p38 MAPK in neuronal cells. Cells were treated as described above, and were plated on glass cover-slips which had been soaked in 10 μg/mL of mouse laminin. Following differentiation, neuronal cells were treated with soluble Aβ1-40 (5 μM) or anasomycin (20 μM, a known stimulator of p38 MAPK) for 10 and 20 min, and immediately fixed in 4% paraformaldehyde in 0.1 M PBS, pH 7.4 for 30 min at 4° C. Cells were washed multiple times in PBS, and incubated for 3 h with a phospho-specific antibody recognizing active active p38 MAPK. Cells were then washed multiple times in PBS and incubated with a secondary HRP-conjugated antibody. Immunostaining was performed using the DAKO ABC kit, cells were counterstained with hematoxylin-eosin, and cells were then observed under a microscope.

[2] = test system: intact rat aortae (aortic rings); assay: [3H]AA release in intact rat aortae; assay type: cell-based; conditions: 5 minutes, then ET-1 dose range
Experimental: Measurement of [^3H]AA release in intact rat aortae. Aortic rings (1.5 mm long) were placed in 1 mL of physiological saline solution (PSS, containing 130 mM NaCl, 5 mM KCl, 1.5 mM CaCl2, 1.2 mM MgCl2, 10 mM HEPES, and 10 mM glucose adjusted to pH 7.2 with NaOH) and incubated with 2.5 μCi of [^3H]AA (specific activity of 91.8 Ci/mmol) for 24 h at 4° C. Rat aortae were subsequently washed in 50 mL of Kreb's buffer and then subjected to the vasoactivity assay. Initial background [^3H]AA release was determined following 30 min of equillibration for each aortic ring prior to treatment by removing 200 μL of Kreb's buffer (total volume of 7 mL each) from each bath, and measuring radioactivity (in cpm) after the addition of 1 mL of scintillant (EcoLume, ICN Inc., Calif.) using a liquid scintillation counter (1209 Rackbeta, WALLAC Inc., Md.). Subsequently, aortic rings were treated with sPLA2 alone or Aβ1-40 (1 μM) in the presence or absence of a MEK1/2 inhibitor (PD 98059) or a cPLA2 inhibitor (AACOCF3) for 5 min, or went untreated for the same length of time (control). Quantification of [^3H]AA release was then preformed as described above. All aortic rings were then subjected to a dose range of ET-1 (1, 2.5, and 5 nM), and radioactivity was measured 5 min after the first dose of ET-1 (1 nM), and 20 min after the second (2.5 nM) and third (5 nM) doses of ET-1. Radioactivity incorporated into each ring was determined by placing the aortic ring in 1 mL of scintillant and assaying as described above. Results are expressed as the means ±1 SE of the percentage of [^3H]AA incorporated for each aortic ring [([^3H]AA released—[^3H]AA initial background)/incorporated [^3H]AA].
(§1) Statistical analysis. Analysis of variance (ANOVA) was used to analyze the data, with post-hoc comparisons of means carried out where appropriate by Sheffe's or Bonferonni's methods. As previously described (Paris et al., Neurosci Lett, 1998), a significant interactive term by ANOVA was taken as evidence that both drug x and Aβ are modulating a common signal transduction pathway. […] Levene's test for equality of variance followed by t-test for independent samples was used for single mean comparisons. Alpha levels were set at 0.05 for all analyses. Analyses were performed using SPSS for Windows release 9.5.

N9 microglia = assay: [3H]AA release in cultured microglial cells; assay type: cell-based, murine; conditions: FIG. 24
Experimental: Measurement of [^3H]AA release in cultured cells. Microglial cells were cultured as described above, seeded at 50,000 cells/well in 6-well plates (Falcon, France), and incubated with 0.4 μCi/mL [^3H]AA for 18 h. Cells were washed multiple times with 1 mL of complete medium and were then treated with 1 μM of Aβ1-40 or 10 U/mL of sPLA2 for 5 h. Cell culture supernatants were collected each hour following treatment and radioactivity was quantified as described above.
as §1

[3] = test system: NGF-β differentiated PC12 cells; assay: [3H]AA release in neuronal cells; assay type: cell-based, rat; conditions: FIG. 25
Experimental: Measurement of [^3H]AA release in neuronal cells (cultured differentiated PC12 cells). A rat pheochromocytoma cell line (PC12) was grown in Kahn's modification of F12 medium supplemented with 10% fetal calf serum, 100 U/mL penicillin and […] streptomycin. PC12 cells were seeded at 35,000 cells/well and differentiated with 60 ng/mL NGF-β for 5-6 days and then maintained with 5 ng/mL NGF-β thereafter. PC12 cells were treated with 0.4 μCi/mL of [^3H]AA for 18 h and were washed multiple times with 1 mL of complete medium to remove unincorporated [^3H]AA. Cells were then treated with 1 μM of Aβ1-40 or 40 U/mL of sPLA2 for 5 h. Cell culture supernatants were collected each hour following treatment and radioactivity was quantified as described above.
Statistical analysis. Analysis of variance (ANOVA) was used to analyze the data, with post-hoc comparisons of means carried out where appropriate by Sheffe's or Bonferonni's methods. Levene's test for equality of variance followed by t-test for independent samples was used for single mean comparisons. Alpha levels were set at 0.05 for all analyses. Analyses were performed using SPSS for Windows release 9.5.

[4] = test system: rat aortae (aortic rings); assay: Vessel bath vasoactivity assay: ET-1-induced vasoconstriction of rat aortic rings and its enhancement by Aβ or sPLA2; assay type: cell-based
Experimental: Vessel experiments. Freshly dissected aortae were prepared from normal male Sprague-Dawley rats (7-8 months old, purchased from Zivic Miller, Zelienople, Pa.) as previously described by Paris et al, Exp Neurol 1998 and Exp Neurol 1999. Rat aortae were segmented into rings and suspended in Kreb's buffer on hooks connected to a tensiometer linked to a MacLab system. Aortic rings were equilibrated for 2 hours, in 7 mL tissue baths containing Kreb's buffer oxygenated with 95% O2: 5% CO2, and thermoregulated to 37° C. A baseline tension of 2 g was applied to each ring, and the first set of aortic rings was pretreated with the various compounds named above either alone or in combination with Aβ peptides. After 5 minutes of incubation in the presence or absence of Aβ, this first set of vessels was subjected to a dose range of ET-1 (from 1 nM to 5 nM). A second set of vessels was treated with 1 μM of Aβ peptides prior to the addition of ET-1. A third set (control) received only ET-1 treatment. Each ET-1 dose was added only after the constriction response to the previous dose had reached a plateau. In all cases the means ±1 standard error (SE) of the percentage vasoconstriction increase over baseline were determined for each dose of ET-1 used.
as §1

N9 microglial cells = assay: Leukotriene B4 (LTB4) ELISA on microglial cell supernatants; assay type: cell-based, murine; conditions: 500 nM, 18 hours; FIG. 23
Experimental: Leukotriene -B4 (LTB4) enzyme-linked immunoabsorbant assay (ELISA). Quantitative determination of LTB4 levels was made using a competitive binding ELISA (R&D Systems, Minneapolis, Minn.) designed to measure LTB4 in cell culture supernatants (as described in Paris et al., Exp Neurol 1999). A murine microglial cell line (N9) was provided by Dr. Paola Ricciardi-Castagnoli (Cellular Pharmacology Center, Milan, Italy) and were grown in RPMI medium supplemented with five percent fetal calf serum, 2 mM glutamine, 100 U/mL penicillin, […] streptomycin and 0.05 mM 2-mercaptoethanol. Microglial cells were seeded at 50,000 cells/well in 6-well plates (Falcon, France) and treated with Aβ1-40 (500 nM), drugs which oppose the PLA2/AA/5-LOX/COX-2 pathway, or untreated (control) and incubated for 18 hours. Cell supernatants were then collected and diluted 10-fold in assay buffer. 50 μL of diluted samples were then used in the assay, and each sample was assayed in duplicate. Manipulations were performed in accordance with the manufacturer's instruction. A spectramax 250 spectrophotometer (Molecular Devices, San Diego, USA) was used to measure absorbance at 405 nm and a standard curve was plotted using a 4-parameter model.
as §1

[5] = test system: rat aortae (aortic rings); conditions: freshly solubilized; previously shown (Crawford et al., 1998); cited from earlier work

## COc1ccc(C[C@H]2NC[C@H](O)[C@H]2OC(C)=O)cc1 [anisomycin]
[1]; 20 μM
  activation of p38 MAPK (phospho-specific immunostaining): brown immunostaining is intensified, and a strong nuclear staining is evident

## type I sPLA2: secretory porcine pancreatic PLA2 (type I sPLA2), purchased from Sigma
[2]; 10 U/mL, FIG. 20
  [3H]AA release from aortic rings: increased release of [^3H]AA
N9 microglia; 10 U/mL for 5 h
  [3H]AA release in N9 microglia: induces the release of [^3H]AA
[3]; 40 U/mL for 5 h
  [3H]AA release in neuronal cells: induces the release of [^3H]AA
[4]; 1 U/mL, 5 minutes prior to ET-1 dose range, FIG. 6
  effect on ET-1-induced vasoconstriction: able to enhance the vasoconstriction induced by ET-1
[4]; added directly into the vessel bath, without ET-1
  intrinsic vasoactive properties: does not display intrinsic vasoactive properties

## Aβ1-40: soluble β-amyloid peptide containing forty amino acids, obtained from QCB
[2]; Aβ1-40 1 μM, FIG. 21
  [3H]AA release from aortic rings: enhances the release of [^3H]AA from aortic rings
N9 microglia; 1 μM for 5 h
  [3H]AA release in N9 microglia: stimulates AA release from N9 microglia
[3]; 1 μM for 5 h
  [3H]AA release in neuronal cells: stimulates AA release from neuronal cells
[1]; Aβ1-40 5 μM
  activation of p38 MAPK (phospho-specific immunostaining): increases the phosphorylation of p38 MAPK
[4]; 50 nM dose, across 2.5 nM and 5 nM ET-1, FIG. 1
  enhancement of ET-1-induced vasoconstriction versus Aβ-free condition: significant difference
[4]; 1 μM, 5 minutes prior to ET-1 (1, 2.5, 5 nM), FIG. 2
  duration of ET-1-induced vasoconstriction (vasotension t=0 to 10 minutes after 5 nM ET-1): induces a long-lasting vasoconstriction
[4]; freshly solubilized peptide
  lowest dose giving sustained constriction / enhancement of ET-1-induced vasoconstriction: ≤ 50 nM
N9 microglial cells
  microglial LTB4 release: increased release of LTB4
[5]
  magnitude of constriction induced by ET-1 in isolated mammalian vessels: increase the magnitude of constriction induced by ET-1
